Measured values as given in US20260115177A1, “MEDICINAL PRODUCTS AND METHODS FOR THE ALLEVIATION OF CANCER IMMUNOTHERA-PY-ASSOCIATED CYTOKINE RELEASE SYNDROME” (POOLBEG PHARMA (UK) LIMITED, priority 2023, published 2026).

System: PBMC-humanized NSG-MHC I/II double knock-out mice with Raji-Luc CD19-expressing cancer cells
Test: In vivo (murine) model using CAR T for CRS induction
Set-up: species or system mouse
Experimental: An outline of the timeline of the model is provided in FIG. 16; it commences on Study Day −5 and ends on Study Day 10.
Thus, on Study Day −5, 30 female 6- to 8-week-old NSG-(KbDb)null (IA)null mice are irradiated at 100 cGy. 4 hours later, on the same day (Study Day −5) they are each injected, via tail vein, with 0.25×10^6 Raji-Luc CD19-expressing cancer cells (a Raji wild-type cell line with stable and high expression of luciferase, enabling detection of cancer burden by […]).
On Study Day −2, clinical observation commences for all 30 mice (including body weight monitoring) and all 30 mice are imaged using in vivo […] imaging (IVIS). For IVIS, mice are intraperitoneally injected with 150 mg/kg D-Luciferin. 10 minutes after the D-Luciferin injection, mice are imaged dorsally and ventrally (auto exposure) using an IVIS Lumina system (obtainable from PerkinElmer of Chalfont Road, Seer Green, Beaconsfield, HP9 2FX, UK). Region of interest (ROI) are drawn for each mouse to capture its whole body, and total flux (p/s) is reported. IVIS imaging of all 30 mice continues on a biweekly basis throughout the study, thereby monitoring cancer cell burden. Daily clinical observation continues throughout the study, including observation of CRS, CRS being scored as follows:
25 of the mice are injected intraperitoneally, on Study Day 0, with 5×10^6 anti-CD19 CAR T cells in phosphate-buffered saline.
As a control, a group consisting of 5 of the mice (“Group 1”) are not administered CAR T cells. Beginning on Study Day −1 and ending on Study Day 9, Group 1 receive treatment with 0.5% (w:v) HPMC, 0.1% (w:v) Tween 80 in sWFI (vehicle/control), administered BID at 5 mL/kg.
The 25 mice administered CAR T cells are divided into groups of 5 mice per group. […]

In the case of `OCCCn1cc2c(-c3ccc(F)cc3)c(-c3ccncc3)c(-c3ccc(F)cc3)nc2n1` [UR-13870, 6-bis(4-fluorophenyl)-5-(4-pyridinyl)-2Hpyrazolo[3,4-b]pyridine-2-propanol], the “CAR T cell expansion (flow cytometry)” value (blood, Study Days 2, 6 and 10) is reported as “successfully maintained”, the “CAR T cell therapy efficacy, tumour burden (IVIS)” value (day 7 and day 9, UR-13870 2, 10, 25 mg/kg BID s.c., Humira 5 mg/kg i.p. once) is reported as “remained efficacious” and the “number of CAR T cells in circulation” value (day 10, high dose (25 mg/kg BID)) is reported as “significantly enhanced”.
